Experimental data reported in paper PMC4978154, “Phase I metabolites of mephedrone display biological activity as substrates at monoamine transporters” (British Journal of Pharmacology, 2016).
Values joined by “and” are separate entries in the source; they are usually repeats but may differ in a detail not shown here. Equal values may be shown once.

How the values were obtained:
Type in all cases: cell-based
[1] = target: T1, hDAT (Homo sapiens, UniProt Q01959); experiment: Transporter uptake inhibition in HEK293 cells expressing hDAT; settings: [3H]-MPP+ uptake
T1 construct: expressed in transfected cells
T1 sequence (Q01959 whole entry): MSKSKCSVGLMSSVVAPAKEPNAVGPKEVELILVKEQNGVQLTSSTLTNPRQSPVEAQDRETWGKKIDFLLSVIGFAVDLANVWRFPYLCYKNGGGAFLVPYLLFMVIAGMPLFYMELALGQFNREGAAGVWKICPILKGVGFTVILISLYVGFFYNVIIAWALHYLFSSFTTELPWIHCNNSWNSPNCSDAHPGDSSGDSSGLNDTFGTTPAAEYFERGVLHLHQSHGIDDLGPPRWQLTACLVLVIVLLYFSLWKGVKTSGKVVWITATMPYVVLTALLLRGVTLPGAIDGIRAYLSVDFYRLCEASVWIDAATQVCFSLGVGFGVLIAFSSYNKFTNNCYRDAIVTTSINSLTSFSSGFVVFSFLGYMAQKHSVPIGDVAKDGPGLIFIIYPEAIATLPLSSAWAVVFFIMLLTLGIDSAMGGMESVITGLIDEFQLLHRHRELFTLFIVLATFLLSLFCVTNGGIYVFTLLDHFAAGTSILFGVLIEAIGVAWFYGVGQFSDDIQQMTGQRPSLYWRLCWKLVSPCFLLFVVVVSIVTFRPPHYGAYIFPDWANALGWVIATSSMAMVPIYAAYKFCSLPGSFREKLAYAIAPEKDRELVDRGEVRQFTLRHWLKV
Description: (§1) The generation of HEK293 cells stably expressing the human isoforms of DAT (hDAT) and NET (hNET) was carried out as described previously (Scholze et al., 2002). For SERT, the human isoform (hSERT) was cloned in frame with yellow fluorescent protein (Schmid et al., 2001). The generation of a stable cell line was performed as described by Hilber and colleagues (Hilber et al., 2005). HEK293 cells were maintained in humidified atmosphere (5% CO2, 37°C) in DMEM, supplemented with 10% heat‐inactivated FBS and penicillin (100 u 100 mL^−1) and streptomycin (100 μg 100 mL^−1). Selection pressure was maintained by adding geneticin (50 μg·mL^−1) to the cell culture media.
(§2) Uptake experiments were conducted as described previously (Sitte et al., 2001) with minor modifications. In brief, HEK293 cells expressing hDAT, hNET or hSERT were seeded into poly‐D‐lysine (PDL) coated 96‐well plates at a density of 40 000 cells per well. The next day, DMEM was aspirated and replaced with Krebs HEPES buffer (KHB, 25 mM HEPES, 120 mM NaCl, 5 mM KCl, 1.2 mM CaCl2, and 1.2 mM MgSO4, 5 mM D‐glucose, pH adjusted to 7.3 with NaOH) (200 μL per well), and cells were pre‐incubated with various concentrations of mephedrone or its metabolites for 5 min (50 μL per well). Subsequently, 0.1 μM of [^3H]‐5‐HT or 0.02 μM of [^3H]‐MPP^+ were added, and uptake was terminated after 1 (hSERT) or 3 min (hDAT, hNET) by washing the cells with 200 μL of ice‐cold KHB. Cells were lysed with 1% SDS, and tritium uptake was determined by scintillation counting. Nonspecific uptake was determined in the presence of 10 μM paroxetine (hSERT) or 10 μM mazindol (hDAT and hNET).
(§3) Calculations were performed using Microsoft Excel® 2010 (Microsoft Corporation, Redmond, WA, USA) and GRAPHPAD PRISM 5.0. (GraphPad Software Inc., La Jolla, CA, USA). IC50 values for uptake inhibition and EC50 values for release were determined by nonlinear regression fits. Release data expressed as AUC were analysed by one‐way ANOVA followed by Bonferroni's multiple comparison test. Microdialysis and locomotor data were analysed by two‐way ANOVA (drug treatment × time) followed by Bonferroni's test. The effect of monensin treatment on basal efflux of tritiated substrate was analysed with the Mann–Whitney test. P values less than 0.05 (i.e. P < 0.05) were considered significant. The data and statistical analysis comply with the recommendations on experimental design and analysis in pharmacology (Curtis et al., 2015).

[2] = target: T2, hNET (Homo sapiens, UniProt P23975); experiment: Transporter uptake inhibition in HEK293 cells expressing hNET; settings: [3H]-MPP+ uptake
T2 construct: expressed in transfected cells
T2 sequence (P23975 whole entry): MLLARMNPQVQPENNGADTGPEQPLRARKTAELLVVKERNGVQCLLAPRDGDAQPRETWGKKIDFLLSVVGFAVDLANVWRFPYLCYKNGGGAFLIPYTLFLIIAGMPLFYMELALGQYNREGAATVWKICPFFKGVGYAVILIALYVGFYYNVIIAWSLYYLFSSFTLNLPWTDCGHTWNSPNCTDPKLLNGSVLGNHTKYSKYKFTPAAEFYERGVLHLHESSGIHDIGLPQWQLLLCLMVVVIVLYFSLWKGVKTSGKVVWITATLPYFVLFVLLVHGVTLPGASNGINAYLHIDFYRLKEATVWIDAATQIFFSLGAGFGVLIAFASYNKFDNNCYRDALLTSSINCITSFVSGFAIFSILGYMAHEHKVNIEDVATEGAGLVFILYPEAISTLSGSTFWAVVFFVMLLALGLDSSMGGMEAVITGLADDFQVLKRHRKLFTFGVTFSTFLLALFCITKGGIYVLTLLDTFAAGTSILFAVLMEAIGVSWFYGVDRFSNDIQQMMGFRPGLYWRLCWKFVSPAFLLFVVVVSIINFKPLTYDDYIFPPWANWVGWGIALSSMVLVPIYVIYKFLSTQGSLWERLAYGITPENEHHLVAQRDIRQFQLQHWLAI
Description: as §1, §2
as §3, with “GRAPHPAD” left out

[3] = target: T3, hSERT (Homo sapiens, UniProt P31645); experiment: Transporter uptake inhibition in HEK293 cells expressing hSERT; settings: [3H]-5-HT uptake
T3 construct: yellow fluorescent protein (YFP); expressed in transfected cells
T3 sequence (P31645 whole entry): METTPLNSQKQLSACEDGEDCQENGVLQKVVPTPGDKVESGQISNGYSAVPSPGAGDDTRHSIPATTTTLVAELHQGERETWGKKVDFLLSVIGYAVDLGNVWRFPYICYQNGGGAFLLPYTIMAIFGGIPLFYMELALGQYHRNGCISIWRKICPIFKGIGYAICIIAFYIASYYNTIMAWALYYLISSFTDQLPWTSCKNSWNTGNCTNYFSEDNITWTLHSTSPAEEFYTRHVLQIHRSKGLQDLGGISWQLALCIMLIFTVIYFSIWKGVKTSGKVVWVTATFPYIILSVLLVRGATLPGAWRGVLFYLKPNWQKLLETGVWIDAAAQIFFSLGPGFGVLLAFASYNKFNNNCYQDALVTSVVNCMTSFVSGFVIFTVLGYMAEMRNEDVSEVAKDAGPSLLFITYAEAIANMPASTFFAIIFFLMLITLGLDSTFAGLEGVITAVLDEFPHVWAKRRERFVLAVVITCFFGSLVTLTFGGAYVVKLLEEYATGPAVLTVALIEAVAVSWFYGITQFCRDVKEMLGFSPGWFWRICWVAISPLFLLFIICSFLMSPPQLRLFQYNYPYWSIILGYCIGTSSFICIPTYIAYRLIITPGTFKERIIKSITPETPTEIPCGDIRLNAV
Description: as §1, §2, §3

[4] = target: T1, hDAT; experiment: Transporter release (superfusion) assay in HEK293 cells expressing hDAT
Description: as §1
(§4) Superfusion experiments were performed as described previously (Scholze et al., 2002). Briefly, HEK293 cells expressing the desired transporter were seeded at a density of 40 000 cells per well onto poly‐D‐lysine‐coated 5 mm glass cover slips in 96‐well plates 24 h prior to the experiment. Cells were preloaded with [^3H]‐MPP^+ (0.1 μM, hDAT and hNET) or [^3H]‐5‐HT (0.4 μM, hSERT) for 20 min at 37°C in a final volume of 100 μL per well. Subsequently, glass coverslips were transferred into small superfusion chambers (volume of 200 μL) and superfused with KHB at 25°C with a superfusion rate of 0.7 mL·min^−1 for 40 min to establish a stable basal efflux. After washout, the collection of 2‐min fractions was initiated. After the first three basal fractions, monensin (10 μM) or solvent was added for four fractions. Consequently, the cells were challenged with test drugs (10 μM) for five fractions in the presence or absence of monensin. Finally, the cells were lysed in 1% SDS to determine the total radioactivity. Radioactivity per fraction was assessed by a liquid scintillation counter and expressed as fractional release, that is, the percentage of released ^3H in relation to total ^3H present at the beginning of the fraction (Sitte et al., 2000). For analysis, release was expressed as AUC.
as §3
Data from uptake inhibition assays cannot distinguish whether test drugs act as non‐transported inhibitors or transportable substrates, which evoke release (Scholze et al., 2000; Sitte et al., 2000; Baumann et al., 2013). Therefore, mephedrone and its metabolites were tested in release assays to further explore their interaction with transporters. The release assays were performed with the same transporter‐expressing HEK293 cell lines described above and used a superfusion system (Sitte et al., 2000). As described previously, efflux of preloaded [^3H]‐MPP^+ or [^3H]‐5‐HT was monitored in the presence or absence of monensin (10 μM) (Scholze et al., 2000). […]

[5] = target: T2, hNET; experiment: Transporter release (superfusion) assay in HEK293 cells expressing hNET; settings: test drug 10 μM, monensin 10 μM; post hoc Bonferroni
Description: as §1
as §4, with “Consequently, the cells were challenged with test drugs (10 μM) for five fractions in the presence or absence of monensin.” left out
as §3, with “(GraphPad Software Inc., La Jolla, CA, USA).” left out, “P values less than 0.05 (i.e. P < 0.05) were considered significant. The data and statistical analysis comply with the recommendations on experimental design and analysis in pharmacology (Curtis et al., 2015).” left out
Data from uptake inhibition assays cannot distinguish whether test drugs act as non‐transported inhibitors or transportable substrates, which evoke release (Scholze et al., 2000; Sitte et al., 2000; Baumann et al., 2013). […] As described previously, efflux of preloaded [^3H]‐MPP^+ or [^3H]‐5‐HT was monitored in the presence or absence of monensin (10 μM) (Scholze et al., 2000). […]

| SMILES | IC50 ([1]; IC50 on uptake mediated by hDAT, mean (95% confidence interval)) | efficacy of uptake inhibition at hDAT [1] | IC50 ([2]; IC50 on uptake mediated by hNET, mean (95% confidence interval)) | efficacy of uptake inhibition at hNET [2] | IC50 ([3]; IC50 on uptake mediated by hSERT, mean (95% confidence interval)) | efficacy of uptake inhibition at hSERT [3] | enhancement by monensin of drug-evoked [3H]-MPP+ release at hDAT (AUC) ([4]; test drug 10 μM, monensin 10 μM, post hoc Bonferroni) | enhancement by monensin of drug-evoked [3H]-MPP+ release at hNET (AUC) [5] | effect of monensin alone on substrate release (basal efflux) ([4]; monensin 10 μM alone, P < 0.05, Mann–Whitney test) |
| --- | --- | --- | --- | --- | --- | --- | --- | --- | --- |
| CNC(C)C(O)c1ccc(C)cc1.Cl (stereo not drawn) [Dihydromephedrone, 2‐(methylamino)‐1‐(p‐tolyl)propan‐1‐ol hydrochloride] | 24 µM | fully efficacious inhibitors of uptake | 24 µM and 23.5 µM | fully efficacious inhibitors of uptake | 65 µM | fully efficacious inhibitors of uptake | not | not | – |
| CC[C@@]1([C@@H]2O[C@@H]([C@H]3O[C@@](O)(CO)[C@H](C)C[C@@H]3C)C[C@@H]2C)CC[C@H]([C@]2(C)CC[C@]3(C[C@H](O)[C@@H](C)[C@@H]([C@@H](C)[C@@H](OC)[C@H](C)C(=O)O)O3)O2)O1 [monensin, reference compound] | – | – | – | – | – | – | – | – | significant albeit modest increase |
